According to article PMC6747015, “Structure–function study of a novel inhibitor of the casein kinase 1 family in Arabidopsis thaliana” (Plant Direct, 2019):

Assays:
[1] = target: T1, CKL6 (AT4G28540) (Arabidopsis thaliana, UniProt Q8LPJ1); assay: AMI‐329 bead binding with AMI‐331 competitor, CKL6
T1 construct: from tissue; host or cells: Arabidopsis seedlings, two weeks old
Experimental: (§1) Screening for proteins bound to AMI‐329 beads was done by a method similar to what has previously been described (Uehara et al., 2019). Briefly, two‐week‐old seedlings grown under LD conditions were harvested at time points ZT2, ZT6, ZT9, and ZT17, and stored at −80°C. Proteins from the frozen plant samples were incubated with 0, 5, or 50 µM of AMI‐331 at 4°C for 30 min with rotary mixing. Two technical replicates were used for each experiment. PBS‐washed AMI‐329 beads were added to the protein samples and gently rotated at 4°C for 1 hr. AMI‐329 bead resins were washed with bead buffer (Uehara et al., 2019) six times. The washed resins were suspended in SDS sample buffer and boiled for 8 min. Protein samples were in‐gel‐digested as previously described (Uehara et al., 2019). Peptides were analyzed with a Q Exactive hybrid quadrupole‐orbitrap mass spectrometer (Thermo Fisher Scientific), as described previously (Uehara et al., 2019). […]
(§2) However, another possible mechanism for the strong AMI‐331 biological activity in vivo is that it targets proteins other than the CK1 family for period lengthening. […] It is noteworthy that kinase AT4G08800 is very similar to the CKL family, but the ATP‐binding pocket of mammalian CK1 as determined by its crystal structure (Shinohara et al., 2017) was absent from AT4G08800, as shown in an Araport 11 model (https://www.araport.org). […]

[2] = target: T2, CKL3 (AT4G28880) (Arabidopsis thaliana, UniProt Q93Z18); assay: AMI‐329 bead binding with AMI‐331 competitor, CKL3
T2 construct: from tissue; host or cells: Arabidopsis seedlings, two weeks old
T2 sequence (Q93Z18 whole entry): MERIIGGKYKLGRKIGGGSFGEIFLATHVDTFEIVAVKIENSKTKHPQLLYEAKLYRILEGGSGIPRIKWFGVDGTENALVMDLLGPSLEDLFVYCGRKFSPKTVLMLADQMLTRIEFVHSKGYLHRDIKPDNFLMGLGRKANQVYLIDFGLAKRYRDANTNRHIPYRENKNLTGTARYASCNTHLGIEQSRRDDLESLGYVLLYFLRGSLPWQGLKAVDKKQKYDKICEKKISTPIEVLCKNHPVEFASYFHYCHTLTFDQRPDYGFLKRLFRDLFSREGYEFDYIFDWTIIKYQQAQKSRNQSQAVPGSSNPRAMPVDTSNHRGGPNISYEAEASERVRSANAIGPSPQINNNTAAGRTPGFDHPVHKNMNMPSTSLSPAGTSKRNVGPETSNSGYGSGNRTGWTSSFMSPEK
Experimental: as §1, §2

[3] = target: T3, CKL13 (AT1G04440) (Arabidopsis thaliana, UniProt Q5XF24); assay: AMI‐329 bead binding with AMI‐331 competitor, CKL13
T3 construct: from tissue; host or cells: Arabidopsis seedlings, two weeks old
T3 sequence (Q5XF24 whole entry): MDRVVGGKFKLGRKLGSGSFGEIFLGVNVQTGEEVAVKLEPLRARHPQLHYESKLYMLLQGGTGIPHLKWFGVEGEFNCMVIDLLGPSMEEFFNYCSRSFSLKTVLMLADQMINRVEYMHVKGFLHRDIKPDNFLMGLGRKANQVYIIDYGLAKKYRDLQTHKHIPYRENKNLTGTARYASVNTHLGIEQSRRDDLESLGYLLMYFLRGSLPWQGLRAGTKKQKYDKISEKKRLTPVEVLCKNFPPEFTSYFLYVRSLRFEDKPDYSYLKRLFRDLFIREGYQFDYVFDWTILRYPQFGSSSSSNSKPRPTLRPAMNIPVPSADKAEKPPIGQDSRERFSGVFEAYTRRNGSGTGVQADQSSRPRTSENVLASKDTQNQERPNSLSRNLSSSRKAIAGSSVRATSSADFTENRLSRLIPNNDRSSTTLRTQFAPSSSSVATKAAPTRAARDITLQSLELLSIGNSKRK
Experimental: as §1, §2

[4] = target: T4, NRPB3 (AT2G15430) (Arabidopsis thaliana, UniProt Q39211); assay: AMI‐329 bead binding with AMI‐331 competitor, NRPB3
T4 construct: from tissue; host or cells: Arabidopsis seedlings, two weeks old
T4 sequence (Q39211 whole entry): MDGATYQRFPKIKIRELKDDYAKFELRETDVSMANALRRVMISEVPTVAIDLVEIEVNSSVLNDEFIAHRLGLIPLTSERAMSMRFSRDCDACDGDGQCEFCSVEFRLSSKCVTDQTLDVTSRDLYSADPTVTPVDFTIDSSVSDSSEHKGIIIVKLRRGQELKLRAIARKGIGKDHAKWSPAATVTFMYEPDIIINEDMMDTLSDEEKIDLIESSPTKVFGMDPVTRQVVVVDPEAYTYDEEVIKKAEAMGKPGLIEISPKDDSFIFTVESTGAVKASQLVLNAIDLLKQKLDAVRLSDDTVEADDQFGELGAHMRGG
Experimental: as §1, §2

[5] = target: T5, Recombinant CKL4 kinase (Arabidopsis thaliana, UniProt Q8LPI7); assay: In vitro phosphorylation assay of CKL4 (32P phosphorylation of casein); assay type: biochemical; conditions: recombinant CKL4, casein, 32P‐ATP, 37°C for 2 hr; read-out: IC50 for in vitro CKL4 kinase activity
T5 sequence (Q8LPI7 1-414): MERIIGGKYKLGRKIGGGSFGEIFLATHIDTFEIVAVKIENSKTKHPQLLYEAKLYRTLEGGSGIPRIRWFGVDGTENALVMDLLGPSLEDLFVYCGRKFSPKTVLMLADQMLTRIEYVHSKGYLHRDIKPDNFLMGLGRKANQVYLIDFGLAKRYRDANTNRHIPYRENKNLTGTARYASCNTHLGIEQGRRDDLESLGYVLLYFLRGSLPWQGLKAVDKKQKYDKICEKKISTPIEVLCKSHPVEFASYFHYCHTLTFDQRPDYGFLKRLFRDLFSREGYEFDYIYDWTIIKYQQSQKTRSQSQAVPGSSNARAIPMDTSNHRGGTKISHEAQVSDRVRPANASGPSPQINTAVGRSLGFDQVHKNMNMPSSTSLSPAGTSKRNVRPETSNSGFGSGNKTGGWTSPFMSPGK
Experimental: In vitro phosphorylation assays using recombinant CKL4 were performed as described previously (Uehara et al., 2019), with synthetic small molecules. IC261 and PF‐670462 were purchased (Sigma‐Aldrich catalog numbers I0658 and SML0795, respectively). PHA767491 was synthesized as previously described (Uehara et al., 2019). All chemical compounds were dissolved in dimethyl sulfoxide (DMSO) as 10 mM stock solutions. Stock solutions were diluted with DMSO to the working concentration and added to assays in kinase reaction buffer (Uehara et al., 2019).
The activities of three known CK1 inhibitors were measured in vitro by a previously reported method (Uehara et al., 2019). Recombinant CKL4 kinase, casein, ^32P‐ATP, and different concentrations of the inhibitors were combined in a reaction buffer and kept at 37°C for 2 hr. Resulting samples were separated on a polyacrylamide gel by electrophoresis, and ^32P phosphorylation of casein was measured as an indicator of CKL4 kinase activity. IC50 (half‐maximal inhibitory concentration) was determined by calculating the results from at least two independent experiments. […] The stronger in vitro CK1 inhibitory activity shown by PF‐670462 relative to PHA767491 was consistent with previous reports (Uehara et al., 2019).

[6] = tested on: Kinase AT4G08800; assay: AMI‐329 bead binding with AMI‐331 competitor, kinase AT4G08800; set-up: species or system Arabidopsis thaliana
Experimental: as §1, §2

T1 sequence (Q8LPJ1 whole entry): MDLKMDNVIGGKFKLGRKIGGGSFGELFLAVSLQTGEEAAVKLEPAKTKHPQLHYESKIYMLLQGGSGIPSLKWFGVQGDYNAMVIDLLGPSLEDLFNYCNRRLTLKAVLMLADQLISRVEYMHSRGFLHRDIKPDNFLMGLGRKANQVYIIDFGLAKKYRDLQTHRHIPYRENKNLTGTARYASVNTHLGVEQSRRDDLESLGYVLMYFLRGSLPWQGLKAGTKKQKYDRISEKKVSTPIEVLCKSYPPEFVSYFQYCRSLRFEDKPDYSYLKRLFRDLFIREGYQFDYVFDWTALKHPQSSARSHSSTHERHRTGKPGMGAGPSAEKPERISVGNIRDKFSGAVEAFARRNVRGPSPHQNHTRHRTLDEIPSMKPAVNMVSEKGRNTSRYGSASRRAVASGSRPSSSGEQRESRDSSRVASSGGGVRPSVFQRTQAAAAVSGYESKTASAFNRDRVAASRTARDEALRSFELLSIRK

C#CCn1c2c(c(Br)c1-c1ccncc1)C(=O)NCC2.Cl [AMI‐331]
Spectra (PSMs) AMI‐329 beads bound ([1]; competitor AMI‐331 5 µM): 1 PSMs | Spectra (PSMs) AMI‐329 beads bound ([1]; competitor AMI‐331 50 µM): 0 PSMs | Spectra (PSMs) AMI‐329 beads bound ([2]; competitor AMI‐331 5 µM): 1 PSMs | Spectra (PSMs) AMI‐329 beads bound ([2]; competitor AMI‐331 50 µM): 0 PSMs | Spectra (PSMs) AMI‐329 beads bound ([3]; competitor AMI‐331 5 µM): 0 PSMs | Spectra (PSMs) AMI‐329 beads bound ([3]; competitor AMI‐331 50 µM): 0 PSMs | Spectra (PSMs) AMI‐329 beads bound ([4]; competitor AMI‐331 5 µM): 0 PSMs | Spectra (PSMs) AMI‐329 beads bound ([4]; competitor AMI‐331 50 µM): 0 PSMs | IC50 [5]: 700 nM | Spectra (PSMs) AMI‐329 beads bound ([6]; competitor AMI‐331 5 µM): 0 PSMs | Spectra (PSMs) AMI‐329 beads bound ([6]; competitor AMI‐331 50 µM): 0 PSMs
